In patent publication US11278563B2, “Rapid release pharmaceutical formulations containing algal cellulose” (priority 2016, dated 2022):

Columns and labels:
[1] = DSC melting enthalpy and degree of crystallinity of FFA in cellulose mixtures; assay type: physicochemical; conditions: degree of crystallinity of FFA from DSC melting enthalpy, about 10 wt % FFA, n = 3
Protocol: Thermal analysis was performed with TA instrument (Model Q-2000) on both cellulose-drug mixtures and pure substances. Samples were placed inside hermetically sealed aluminium crucibles with punctured lids, in order to avoid overpressure caused by water evaporation. An empty pan was used as a reference. The analysis was conducted in the temperature range from −40° C. to 150° C. with a heating rate of 10° C. min^−1. N2 gas, at a flow of 50 mL min^−1, was applied during analysis. Initially the samples were cooled from room temperature to −40° C., then heated to 150° C. and finally cooled to 25° C. again. All of the samples were stored at ambient conditions for 24 hours prior to DSC measurements. For the heated cellulose-FFA mixtures the heating conditions were 120° C. for 2 hours.
The measurements were performed in triplicate, and the estimated amount of drug in the mixtures was 10 wt %.

[2] = Degree of drug crystallinity from weight normalized melting enthalpies (TGA heat flow); assay type: physicochemical
Protocol: TGA was conducted on a Mettler TG50 apparatus (10 K min^−1; 35° C. to 20° C. above the melting point of the drug) on 10-20 mg samples in aluminium crucibles under a nitrogen atmosphere (60 mL min^−1). Both normal and heated 10% mixtures were analysed and compared to the pure crystalline substance of corresponding drug content, i.e. 1-2 mg. The temperature in the furnace was continuously monitored, and the heat flow curves were collected both for heating and cooling phase to record melting or re-crystallization events.
The weight normalized enthalpies of melting observed in cellulose-drug mixtures were calculated using the STARe Excellence software (Mettler Toledo) and compared to the weight normalized enthalpy for the pure crystalline drug, to give a rough estimate of the degree of the drug crystallinity (“Crl”) as follows.
[formula] where ΔHmelt is weight normalised melting enthalpy of the drug in a specific cellulose-drug blend [in Joules/g] and ΔHdrug is the melting enthalpy of a pure crystalline drug [in Joules/g]. X-Ray Diffraction (XRD)

**Q.** Which CrlFFA.% [1] does the source give for `O=C(O)c1ccccc1Nc1cccc(C(F)(F)F)c1` [FFA, flufenamic acid] here?
**A.** The CrlFFA.% was 100%.

**Q.** Which “CrlNAP (%)” value ([2]; melting event) does the source give for `COc1ccc2cc([C@H](C)C(=O)O)ccc2c1` [NAP, naproxen] here?
**A.** The value was 100%.

**Q.** And the “CrlNAP (%)” value ([2]; recrystallisation event of pure NAP (NAP recryst.))?
**A.** Its value is 76%.

**Q.** With `CC(=O)[C@H]1CC[C@H]2[C@@H]3CCC4=CC(=O)CC[C@]4(C)[C@H]3CC[C@]12C` [PRO, progesterone] as the compound, how does the “CrlPRO (%)” value ([2]; melting event) read?
**A.** Its value is 100%.
